Data on five molecules can be found in patent US5329002A, “Antibacterial cephalosporin compounds” (Hoffmann-La Roche Inc., priority 1990, dated 1994).

Holding throughout (assay type): cell-based
In one experiment the test system is E. coli ATCC 25922. Kind of experiment: In vitro MIC, Broth Dilution Method, E. coli ATCC 25922. As to conditions: Escherichia coli. From the text: (§1) The in vitro activity of the compounds of the present invention as measured by the Minimum Inhibitory Concentration (MIC) in micrograms/ml utilizing the Broth Dilution Method against a variety of Gram-positive and Gram-negative organisms, is as follows:
(§2) Concentration (MIC) in micrograms/ml utilizing the Broth Dilution Method against a variety of Gram-positive and Gram-negative organisms, is as follows:
(§3) In Vitro MIC (μg/ml), Broth Dilution Method
Background: In broth dilution the organism is exposed to a series of concentrations in liquid medium.

A further experiment concerns E. coli TEM 1. Kind of experiment: microbe, parasite or virus in culture. As to conditions: Escherichia coli, TEM1, read-out: In Vitro MIC.
From the text: as §1, §2, §3

A further experiment concerns E. cloacae 5699. Nature of the experiment: In vitro MIC, Broth Dilution Method, E. cloacae 5699.
From the text: as §1, §2, §3

The subject of another experiment is E. cloacae P99. Kind of experiment: In vitro MIC, Broth Dilution Method, E. cloacae P99. Particulars: Enterobacter cloacae, P99, read-out: In Vitro MIC.
From the text: as §1, §2, §3

The subject of a further experiment is S. marcescens 1071. Kind of experiment: In vitro MIC, Broth Dilution Method, S. marcescens 1071.
In a further experiment the test system is P. aeruginosa 8710. Nature of the experiment: In vitro MIC, Broth Dilution Method, P. aeruginosa 8710. As to conditions: Pseudomonas aeruginosa.
From the text: as §1, §2, §3

For another experiment, the system named is P. aeruginosa 18 S/H. Kind of experiment: In vitro MIC, Broth Dilution Method, P. aeruginosa 18 S/H. Particulars: Pseudomonas aeruginosa.
From the text: as §1, §2, §3

In the next experiment the test system is E. faecalis ATCC 29212. Kind of experiment: In vitro MIC, Broth Dilution Method, E. faecalis ATCC 29212. Particulars: Enterococcus faecalis, ATCC29212.
From the text: as §1, §2, §3

For another experiment, the system named is S. pneumoniae 6301. Kind of experiment: In vitro MIC, Broth Dilution Method, S. pneumoniae 6301.
From the text: as §1, §2, §3

The test system of a further experiment is S. aureus 1059B. Nature of the experiment: In vitro MIC, Broth Dilution Method, S. aureus 1059B. As to conditions: Staphylococcus aureus.
The next experiment relates to S. aureus 95. Kind of experiment: In vitro MIC, Broth Dilution Method, S. aureus 95.
From the text: as §1, §2, §3

The next experiment relates to S. aureus ATCC 29213. Nature of the experiment: In vitro MIC, Broth Dilution Method, S. aureus ATCC 29213. As to conditions: Staphylococcus aureus.
The mark [1] stands for this setting: ATCC25922, read-out: In Vitro MIC.
Setting [2] is: Enterobacter cloacae, Broth Dilution Method, E. cloacae 5699, read-out: In Vitro MIC.
Setting [3] is: Serratia marcescens, Broth Dilution Method, S. marcescens 1071, read-out: In Vitro MIC.
The mark [4] stands for this setting: Streptococcus pneumoniae, 6301, read-out: In Vitro MIC.
Setting [5] is: Staphylococcus aureus, Broth Dilution Method, S. aureus 95, read-out: In Vitro MIC.
Where [6] appears, read: ATCC29213, Broth Dilution Method, S. aureus ATCC 29213, read-out: In Vitro MIC.
[7] abbreviates: Enterobacter cloacae, 5699, read-out: In Vitro MIC.
Where [8] appears, read: Streptococcus pneumoniae, Broth Dilution Method, S. pneumoniae 6301, read-out: In Vitro MIC.
The mark [9] stands for this setting: Staphylococcus aureus, 95, read-out: In Vitro MIC.

Where a name gives a salt, the structure may show the parent alone. Read-outs that look alike come from different tables or passages of the source.

On to `CO/N=C(\C(=O)N[C@@H]1C(=O)N2C(C(=O)O)=C(C[N+]3(C)CCN(c4c(F)cc5c(=O)c(C(=O)O)cn(CCF)c5c4F)CC3)CS[C@H]12)c1csc(N)n1` [Compound A, [6R-[6α,7β(Z)]]-1-[7-[[[(2-amino-4-thiazolyl)(methoxyimino)acetyl]amino]-2-carboxy-8-oxo-5-thia-1-azabicyclo[4.2.0]oct-2-en-3-yl]methyl]-4-[3-carboxy-6,8-difluoro-1-(2-fluoroethyl)-1,4-dihydro-4-oxo-7-quinolinyl]-1-methylpiperazinium iodide], for which the MIC with E. coli ATCC 25922 (setting [1]) was determined as 0.25 µg/mL; in the experiment with E. coli TEM 1, 0.25 µg/mL; in the experiment with E. cloacae 5699 (setting [2]), 0.5 µg/mL; with E. cloacae P99, 0.5 µg/mL; with S. marcescens 1071 (setting [3]), 0.5 µg/mL; with P. aeruginosa 8710, 8 µg/mL. In addition, the MIC in the experiment on P. aeruginosa 18 S/H is 8 µg/mL; against E. faecalis ATCC 29212, 64 µg/mL; in the experiment on S. pneumoniae 6301 (setting [4]), 0.063 µg/mL; in the experiment with S. aureus 1059B it was 2 µg/mL; with S. aureus 95 (setting [5]), 4 µg/mL; in the experiment on S. aureus ATCC 29213 (setting [6]), 4 µg/mL.

With `C[N+]1(CC2=C(C(=O)O)N3C(=O)[C@@H](NC(=O)COc4ccccc4)[C@H]3SC2)CCN(c2c(F)cc3c(=O)c(C(=O)O)cn(CCF)c3c2F)CC1.[I-]` [Compound B, (6R-trans)-4-[3-carboxy-1-(2-fluoroethyl)-6,8-difluoro-1,4-dihydro-4-oxoquinolin-7-yl]-1-[[2-carboxy-8-oxo-7-[(phenoxyacetyl)amino]-5-thia-1-azabicyclo-[4.2.0]oct-2-en-3-yl]methyl]-1-methyl-piperazinium iodide], the MIC in the experiment on E. coli ATCC 25922 (setting [1]) is 0.5 µg/mL; in the experiment on E. coli TEM 1 it was 0.5 µg/mL; in the experiment on E. cloacae 5699 (setting [7]), 0.5 µg/mL; in the experiment on E. cloacae P99, 0.5 µg/mL; with P. aeruginosa 8710, 8 µg/mL; in the experiment with P. aeruginosa 18 S/H it was 4 µg/mL. The MIC was determined as 32 µg/mL with E. faecalis ATCC 29212, 0.25 µg/mL with S. pneumoniae 6301 (setting [8]) and 1 µg/mL in the experiment on S. aureus 95 (setting [9]).

Turning to `CC(C)(O/N=C(\C(=O)N[C@@H]1C(=O)N2C(C(=O)[O-])=C(C[N+]3(C)CCN(c4c(F)cc5c(=O)c(C(=O)O)cn(CCF)c5c4F)CC3)CS[C@H]12)c1csc(N)n1)C(=O)O` [Compound C, [6R-[6α,7β(Z)]]-1-[[7-[[[(2-amino-4-thiazolyl)[1-(1-carboxy-1-methyl)ethoxy]imino]acetyl]amino]-8-oxo-5-thia-1-azabicyclo-[4.2.0]oct-2-en-3-yl]methyl]-4-[3-carboxy-1-(2-fluoroethyl)-6,8-difluoro-1,4-dihydro-4-oxoquinolin-7-yl]-1-methylpiperazinium hydroxide inner salt monosodium salt], the MIC with E. coli ATCC 25922 (ATCC25922, Broth Dilution Method, E. coli ATCC 25922, read-out: In Vitro MIC) stood at 0.25 µg/mL; in the experiment on E. coli TEM 1 it was 0.5 µg/mL; in the experiment with E. cloacae 5699 (setting [7]), 0.5 µg/mL; with E. cloacae P99 it was 2 µg/mL; with S. marcescens 1071 (Serratia marcescens, 1071, read-out: In Vitro MIC) it was 0.5 µg/mL; against P. aeruginosa 8710 it was 8 µg/mL. The MIC with P. aeruginosa 18 S/H came out at 8 µg/mL; in the experiment with E. faecalis ATCC 29212, 32 µg/mL; with S. pneumoniae 6301 (setting [8]), 1 µg/mL; against S. aureus 1059B it was 8 µg/mL; with S. aureus 95 (setting [9]) it was 4 µg/mL; in the experiment on S. aureus ATCC 29213 (ATCC29213, read-out: In Vitro MIC), 4 µg/mL.

Take `CCn1cc(C(=O)O)c(=O)c2cc(F)c(N3CC[N+](C)(CC4=C(C(=O)O)N5C(=O)[C@@H](NC(=O)/C(=N\OC)c6csc(N)n6)[C@H]5SC4)CC3)cc21` [Compound D, [6R-[6α,7β(Z)]]-1-[[7-[[(2-amino-4-thiazolyl)(methoxyimino)acetyl]amino]-2-carboxy-8-oxo-5-thia-1-azabicyclo[4.2.0]-oct-2-en-3-yl]methyl]-4-(3-carboxy-1-ethyl-6-fluoro-1,4-dihydro-4-oxo-7-quinolinyl)-1-methylpiperazinium iodide]: the MIC was 0.5 µg/mL in the experiment with E. coli ATCC 25922 (setting [1]); 0.5 µg/mL in the experiment on E. coli TEM 1; 1 µg/mL with E. cloacae 5699 (setting [2]); 1 µg/mL with E. cloacae P99; 0.5 µg/mL in the experiment with S. marcescens 1071 (setting [3]); 8 µg/mL in the experiment with P. aeruginosa 8710. Besides, the MIC came out at 32 µg/mL against P. aeruginosa 18 S/H; 32 µg/mL against E. faecalis ATCC 29212; 0.063 µg/mL in the experiment with S. pneumoniae 6301 (setting [4]); 2 µg/mL against S. aureus 1059B; 4 µg/mL in the experiment with S. aureus 95 (setting [5]); 4 µg/mL in the experiment on S. aureus ATCC 29213 (setting [6]).

Regarding `C[N+]1(CC2=C(C(=O)O)N3C(=O)[C@@H](NC=O)[C@H]3SC2)CCN(c2c(F)cc3c(=O)c(C(=O)O)cn(CCF)c3c2F)CC1` [Compound E, trifluoroacetate salt], the MIC with E. coli ATCC 25922 (setting [1]) worked out at 0.5 µg/mL; with E. coli TEM 1, 0.5 µg/mL; in the experiment with E. cloacae 5699 (setting [7]) it was 0.5 µg/mL; in the experiment on E. cloacae P99 it was 0.5 µg/mL; with S. marcescens 1071 (setting [3]) it was 1 µg/mL; with P. aeruginosa 8710 it was 8 µg/mL. For the same molecule, the MIC was 8 µg/mL against P. aeruginosa 18 S/H; 32 µg/mL in the experiment with E. faecalis ATCC 29212; 1 µg/mL in the experiment on S. pneumoniae 6301 (setting [8]); 0.5 µg/mL in the experiment on S. aureus 1059B; 1 µg/mL with S. aureus 95 (setting [5]); 0.5 µg/mL in the experiment on S. aureus ATCC 29213 (setting [6]).
